Values quoted from earlier work in patent publication US12263175B2, “Optimised dosage of diaminophenothiazines in populations” (WisTa Laboratories Ltd., priority 2018, dated 2025).

Tests used:
[1] = system: TDP-43 aggregates in SH-SY5Y cells; conditions: 0.05 μM MT; cited from earlier work
[2] = system: huntingtin derivative containing a polyglutamine stretch of 102 residues; conditions: zebrafish; tested at 0, 10 and 100 μM; cited from earlier work
[3] = phase 2 study, cited from earlier work

SMILES	Reduction of the number of TDP-43 aggregates [1] [%]	Formation of aggregates of huntingtin derivative (polyglutamine stretch of 102 residues) [2]	Efficacy at higher dose ([3]; 218 mg/day)	Minimum safe and effective dose [3] [mg/day]
CN(C)c1ccc2nc3ccc(=[N+](C)C)cc-3sc2c1 [MT, methylthioninium]	50	prevented the formation of such aggregates in zebrafish in a dose-dependent manner	–	–
CN(C)c1ccc2nc3ccc(N(C)C)cc3[s+]c2c1.[Cl-] [MTC, methylthioninium chloride]	–	–	limited efficacy	138
